Test [1] concerns rAAV-LacZ. Particulars: 20 mM EDTA; HeLa cells; MOI 2. As for the experimental part: (§1) HeLa cells were infected with recombinant virus (rAd-LacZ [FIG. 11A], rAAV-LacZ [FIG. 11B]) at an MOI of 2 either in the presence or absence of divalent cation chelator EDTA (20 mM) as described in methods. 24 h post Ad infection, and 36 h post AAV infection, cells were fixed and stained for β-galactosidase activity (upper panel). Transduction has been quantitated in the lower panel as the percentage of HeLa cells transduced in the presence or absence of EDTA.
(§2) All infectivity and binding assays were done in suspension in a buffer determined to result in maximum cell viability, HEPES-buffered saline (HBS) containing 1% BSA (HBSB) (Sambrook et al., (1989) Molecular Cloning, A Laboratory Manual, (N. Ford et al., eds.), Cold Spring Harbor Laboratory Press, New York). Adherent cells were first detached with 10 mM EDTA followed by two washes in phosphate buffered saline (PBS) containing […] CaCl2 and 0.5 mM MgCl2 and one wash in HBS. To assess the effect of EDTA on AAV transduction, HeLa cells were incubated with recombinant virus at an MOI of 2 in HBS±20 mM EDTA for 1 hour at 4° C. After washing in HBS±EDTA to remove unbound virus, cells were resuspended in HBS±5 mM EDTA and placed at 37° C. for 30 minutes.

Test [2] concerns rAd-LacZ. Particulars: 20 mM EDTA; HeLa cells; MOI 2. The protocol:
as §1, §2

The test system of test [3] is rAd-LacZ. Particulars: Svensson and Persson 1984; cited from earlier work.
Test [4] concerns rAAV-LacZ. The test is described as follows: Inhibition of rAAV-LacZ transduction of HeLa cells by soluble GAGs. Particulars: HeLa cells preincubated with heparin up to 20 μg/ml, washed before infection. It counts as cell-based, AAV-2. As for the experimental part:
FIGS. 1A and 1B illustrate the inhibition of AAV infection by various glycosaminoglycans. In the data shown in FIG. 1A, rAAV was incubated with the indicated concentrations of heparin (solid squares), chondroitin sulfate B (dermatan sulfate) (open circles), chondroitin sulfate A (open diamonds) or chondroitin sulfate C (open triangles) for 1 hour at 37° C. prior to a 1-hour adsorption period of the virus/GAG mixture to HeLa cells for infection. β-galactosidase activity was assayed 44 hours post-infection using a Galacto-Light Plus kit (Tropix Inc.), and measured in a luminometer. Each point denotes the average % decrease in Relative Light Units (RLU) per ug of protein relative to the maximum RLU/μg protein obtained in experiments without GAG. In the data shown in FIG. 1B, HeLa cells were preincubated with increasing concentrations of heparin at 37° C. for 1 hour. After thorough washing, cells were infected with rAAV as described above. Data points represent the average % maximum RLU/ug protein obtained without heparin preincubation.
rAAV-LacZ at an MOI of 2 was incubated in DMEM-H media in the presence or absence of indicated soluble GAGs at 1.0, 5.0, 10, 20, 30 μg/ml for 1 h at 37° C. For infection, rAAV-LacZ or the virus/GAG mixture was incubated with 2×10^5 HeLa cells for 1 h at 37° C. in a 5% CO2 chamber. […]

Test [5] has as its system 3H-wt AAV-2. In words: Inhibition of 3H-wt AAV-2 binding to HeLa cells by soluble GAGs. As to conditions: 5 μg/ml, 90 min at 4° C. The protocol: FIG. 2 illustrates that soluble heparin inhibits binding of AAV to the cell surface. After pre-incubation of 3H-wt AAV-2 with increasing concentrations of the indicated GAGs or the GAG analogue dextran sulfate, labeled virus was adsorbed to HeLa cells for 90 minutes at 4° C. Unbound virus was removed by three washes with ice cold binding buffer and radioactivity was quantitated as described in methods. Data is represented as the average % inhibition relative to the CPM bound in the absence of soluble GAG.
For direct binding assays, ^3H-labeled wtAAV-2 was incubated with cells either attached to plates or in suspension, as indicated, at a ratio of 4×10^11 particles/3×10^5 cells for 90 minutes at 4° C. in HBSB. Cells were then washed 3 times in ice cold HBSB to remove unbound virus, and were solubilized in 0.3 N NaOH. After neutralization with glacial acetic acid, cell-associated radioactivity was quantitated in a scintillation counter. For inhibition studies, and after enzymatic treatments, ^3H-AAV was bound to adherent HeLa cells. Binding to wild type CHO and CHO cell mutants was done with suspended cells. […] Non-specific binding was determined in the presence of 100-fold excess unlabeled wt AAV (previously dialyzed in HBS, 10% glycerol). Binding of Cy3-labeled virus was done on wild type CHO and pgsA-745 cells grown on coverslips. After fixation in 4% paraformaldehyde for 20 minutes at room temperature, cells were mounted on slides and bound Cy3 labeled virus was detected by confocal microscopy. […]
To further examine the observed specificity and to determine whether GAGs were inhibiting binding of the AAV virions to the cell surface, ^3H-wt AAV was incubated with GAGs (heparin, dermatan sulfate, chondroitin sulfate A, chondroitin sulfate C, dextran sulfate) at various concentrations. After incubation with cells, the mixture was washed and cells were solubilized to quantify bound virus. […]

Test [6] relates to rAAV-LacZ. The test is described as follows: rAAV-lacZ transduction of HeLa cells with low concentrations of heparin. Particulars: heparin 0.001 and 0.004 μg/mL, 48 h after infection. It counts as cell-based, AAV-2. As for the experimental part: HeLa cells were infected with rAAV-lacZ virus in the presence or absence of heparin, at the indicated concentrations, for one hour at 37° C. […] Results are reported as the mean and standard deviation of one experiment performed in triplicate.
HeLa cells were infected with rAAV-lacZ virus in the presence or absence of heparin, at concentrations of 0 μg/mL, 0.001 μg/mL, and 0.004 μg/mL, for one hour at 37° C. […] The results of this experiment are shown in FIG. 6 as the mean and standard deviation of one experiment performed in triplicate.

Consider `O=C(O)CN(CCN(CC(=O)O)CC(=O)O)CC(=O)O` [EDTA, ethylenediaminetetraacetate], for which, in test [1], the “inhibition of AAV infection” value was “greater than 90%”. The “inhibition of recombinant Ad-LacZ transduction” value in test [2] worked out at 40%. The “inhibition of Ad infection, previous published results” value in test [3] is 20-50%.

Consider heparin, for which the “inhibition of rAAV transduction after preincubation of cells” value in test [4] is on record as “less than 20%”. In test [5], the “inhibition of AAV binding” value is 90%. Also, the “effect on rAAV transduction (β-galactosidase, RLU/μg protein)” value in test [6] was “enhance rAAV transduction”.

Source of the values: patent publication US6703237B2, “Methods and formulations for mediating adeno-associated virus (AAV) attachment and infection and methods for purifying AAV” (priority 1998, dated 2004).
